From article PMC2925244 (Current biology : CB, 2010)

Key:
Format in all cases: cell-based
hTAS2R4 = target: T1, hTAS2R4 (Homo sapiens, UniProt Q9NYW5); assay: calcium imaging in transfected cells, […] GIV3727 against […] colchicine; conditions: read-out: % activation in presence of GIV3727
T1 sequence (Q9NYW5 1-299): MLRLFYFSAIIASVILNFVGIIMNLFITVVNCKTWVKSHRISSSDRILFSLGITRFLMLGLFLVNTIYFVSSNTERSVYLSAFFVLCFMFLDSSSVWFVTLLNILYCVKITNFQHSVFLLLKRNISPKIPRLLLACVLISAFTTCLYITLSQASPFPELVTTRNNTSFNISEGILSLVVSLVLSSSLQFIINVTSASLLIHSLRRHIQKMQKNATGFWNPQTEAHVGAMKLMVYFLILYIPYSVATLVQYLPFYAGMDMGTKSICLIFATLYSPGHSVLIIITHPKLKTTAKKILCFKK

hTAS2R31 = target: T2, hTAS2R31 (Homo sapiens, UniProt P59538); assay: FLIPR calcium imaging in HEK293 cells stably expressing hTAS2R31 and G16gust44
T2 sequence (P59538 1-309): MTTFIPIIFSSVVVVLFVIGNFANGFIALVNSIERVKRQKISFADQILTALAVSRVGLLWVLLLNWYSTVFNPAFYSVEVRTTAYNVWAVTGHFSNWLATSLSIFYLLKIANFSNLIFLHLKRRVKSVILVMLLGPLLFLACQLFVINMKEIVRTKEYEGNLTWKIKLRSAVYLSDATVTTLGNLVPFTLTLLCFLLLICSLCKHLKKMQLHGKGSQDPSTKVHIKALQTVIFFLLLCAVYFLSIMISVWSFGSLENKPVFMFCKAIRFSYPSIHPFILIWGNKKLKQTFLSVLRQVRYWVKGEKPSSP

hTAS2R43 [1] = target: T3, hTAS2R43 (Homo sapiens, UniProt P59537); assay: calcium imaging in transfected cells, […] GIV3727 against […] aristolochic acid; conditions: read-out: % activation in presence of GIV3727
T3 sequence (P59537 1-309): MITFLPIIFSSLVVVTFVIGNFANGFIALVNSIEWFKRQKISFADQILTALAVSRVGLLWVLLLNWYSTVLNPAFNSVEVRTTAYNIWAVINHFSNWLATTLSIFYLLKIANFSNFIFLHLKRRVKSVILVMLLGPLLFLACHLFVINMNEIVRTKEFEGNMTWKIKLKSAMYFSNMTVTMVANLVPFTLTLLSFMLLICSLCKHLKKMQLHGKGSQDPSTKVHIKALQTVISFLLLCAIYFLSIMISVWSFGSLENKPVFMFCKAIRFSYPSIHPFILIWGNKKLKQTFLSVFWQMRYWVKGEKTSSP

hTAS2R7 = target: T4, hTAS2R7 (Homo sapiens, UniProt Q9NYW3); assay: calcium imaging in transfected cells, […] GIV3727 against […] cromolyn; conditions: read-out: % activation in presence of GIV3727
T4 sequence (Q9NYW3 1-318): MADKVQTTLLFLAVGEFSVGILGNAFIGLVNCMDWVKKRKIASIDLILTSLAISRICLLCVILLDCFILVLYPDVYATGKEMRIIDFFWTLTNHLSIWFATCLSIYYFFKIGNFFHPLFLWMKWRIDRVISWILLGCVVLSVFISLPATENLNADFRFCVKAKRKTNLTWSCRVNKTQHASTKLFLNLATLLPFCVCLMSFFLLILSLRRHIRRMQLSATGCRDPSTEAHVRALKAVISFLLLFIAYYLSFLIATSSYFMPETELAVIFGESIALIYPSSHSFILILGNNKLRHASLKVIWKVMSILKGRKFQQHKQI

hTAS2R40 = hTAS2R40 (Homo sapiens, UniProt P59535); assay: calcium imaging in transfected cells, […] GIV3727 against […] cohumulone; conditions: read-out: % activation in presence of GIV3727
hTAS2R40, sequence (P59535 whole entry): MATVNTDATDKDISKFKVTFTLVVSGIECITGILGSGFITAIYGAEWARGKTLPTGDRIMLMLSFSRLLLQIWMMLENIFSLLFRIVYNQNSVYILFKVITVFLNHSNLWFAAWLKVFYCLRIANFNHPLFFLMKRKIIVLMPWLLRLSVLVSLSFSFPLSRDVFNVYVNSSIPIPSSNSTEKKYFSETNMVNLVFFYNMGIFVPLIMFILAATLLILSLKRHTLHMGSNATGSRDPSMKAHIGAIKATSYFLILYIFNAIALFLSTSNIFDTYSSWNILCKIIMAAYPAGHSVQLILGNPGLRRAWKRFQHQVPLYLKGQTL

hTAS2R43 [2] = target: T3, hTAS2R43; assay: calcium imaging in transfected cells, agonist at […]

Compound	activity at 25 µM (hTAS2R4) [%]	IC50 (hTAS2R31) [µM]	activity at 25 µM (hTAS2R43 [1]) [%]	activity at 25 µM (hTAS2R7) [%]	activity at 25 µM (hTAS2R40) [%]	calcium imaging in transfected cells, agonist at 0.3 μM (hTAS2R43 [2])
CC1CCC(CCCC(=O)O)C1(C)C (stereo not drawn) [GIV3727, 4-(2,2,3-trimethylcyclopentyl)butanoic acid]	45.8 ± 17.4	6.4 ± 2.4	2.5 ± 4.9	47.8 ± 17	3.2 ± 6.5	–
COc1cccc2c1cc([N+](=O)[O-])c1c(C(=O)O)cc3c(c12)OCO3 [aristolochic acid]	–	–	–	–	–	confers sensitivity to aristolochic acid, which activates hTAS2R43 but is inactive in the native hTAS2R46 (Figure S4)
